Test results as given in patent US10974081B2, “Treatment and prevention of sleep disorders” (Purdue Pharma L.P., priority 2016, dated 2021).
Converted amounts (≈) assume the structure as drawn. Read-outs that look alike come from different tables or passages of the source.

Legend:
[1] = Aqueous solubility at pH about 6.8; assay type: physicochemical; conditions: 25 °C, pH 6.8, aqueous buffer, kinetic from dmso stock, single value, procedure not stated; read-out: Solubility at pH 6.8
[2] = In vivo functional observational battery (FOB); conditions: male, Crl:CD(SD), rat, in vivo, po
[3] = tested on: rats; experiment: In vivo functional observational battery (FOB); conditions: for Behavior: 1 mg/kg
[4] = Plasma concentration (pharmacokinetics) after single oral dose in humans; assay type: in vivo, human; conditions: for half-life / Tmax / AUC(0-t) / Cmax / AUC(0-inf): male, human, plasma; for half-life / Tmax: po; for AUC(0-inf): read-out: AUCinf Mean
Experimental: The plasma concentration of Compound (1D) was evaluated in humans for up to 36 hours after administration of a single oral dose of 3, 10, or 30 mg of Compound (1D) in the form of a methyl cellulose suspension. Four healthy male subjects were administered each dose.
FIG. 19A provides a plot of the human plasma concentration of Compound (1D) on a linear scale versus linear time in hours at each dose: 3, 10, and 30 mg. FIG. 19B provides the same results in a plot of human plasma concentration of Compound (1D) on a logarithmic scale versus linear time at each dose. The target plasma exposure indicated in FIG. 19A relates to the effective dose in 80% of subjects from rat modeling results.

[5] = 3 mg/kg, 0.5 h after administration
[6] = 3 mg/kg, 1 h after administration
[7] = 3 mg/kg, 2 h after administration
[8] = 3 mg/kg, 4 h after administration
[9] = 3 mg/kg, 6 h after administration
[10] = 300 mg/kg, 0.5 h after administration
[11] = 300 mg/kg, 1 h after administration
[12] = 300 mg/kg, 2 h after administration
[13] = 300 mg/kg, 4 h after administration
[14] = 300 mg/kg, 6 h after administration

In the case of `CNC(=O)Cn1c(=O)n(C2CCN([C@@H]3Cc4cccc5cccc3c45)CC2)c2ccccc21` [Compound W-212393], the solubility at 16 h [1] is reported as 42 µM (≈ 18.5 µg/mL), the NOAEL [2] is reported as 1 mg/kg and the Behavior ([3]; 0.5 h after administration) is reported as “N”. For the same molecule, the Behavior ([3]; 1 h after administration) was “N”, the Behavior ([3]; 2 h after administration) was “N” and the Behavior ([3]; 4 h after administration) was “N”. For the same molecule, the Behavior ([3]; 6 h after administration) was “N”, the Biting behavior [3, 5] was “N” and the Hvpoactivity [3, 5] was “N”. For the same molecule, the Jumping [3, 5] was “N”, the Biting behavior [3, 6] was 1 of 6 and the Hvpoactivity [3, 6] was 6 of 6. For the same molecule, the Jumping [3, 6] was 3 of 6, the Biting behavior [3, 7] was “N” and the Hvpoactivity [3, 7] was “N”. The Jumping [3, 7] was 2 of 6, the Biting behavior [3, 8] was “N” and the Hvpoactivity [3, 8] was “N”. The Jumping [3, 8] was “N”, the Biting behavior [3, 9] was “N” and the Hvpoactivity [3, 9] was “N”. The Jumping [3, 9] was “N”, the “Abdominal position/side lying position” value [3, 10] was 6 of 6 and the Biting behavior [3, 10] was 3 of 6. For the same molecule, the Decreased muscle tone [3, 10] was 6 of 6, the Jumping [3, 10] was 2 of 6 and the “Loss of auricular reflex/righting reflex” value [3, 10] was 6 of 6. The “Loss of flexed or extension reflex” value [3, 10] was 6 of 6, the “Loss of pain reaction” value [3, 10] was 6 of 6 and the Respiratory irregularity [3, 10] was 6 of 6. For the same molecule, the “Abdominal position/side lying position” value [3, 11] was 6 of 6, the Biting behavior [3, 11] was “N” and the Decreased muscle tone [3, 11] was 6 of 6. For the same molecule, the Jumping [3, 11] was “N”, the “Loss of auricular reflex/righting reflex” value [3, 11] was 6 of 6 and the “Loss of flexed or extension reflex” value [3, 11] was 6 of 6. For the same molecule, the “Loss of pain reaction” value [3, 11] was 6 of 6, the Respiratory irregularity [3, 11] was 6 of 6 and the “Abdominal position/side lying position” value [3, 12] was 6 of 6. The Biting behavior [3, 12] was “N”, the Decreased muscle tone [3, 12] was 6 of 6 and the Jumping [3, 12] was “N”. For the same molecule, the “Loss of auricular reflex/righting reflex” value [3, 12] was 6 of 6, the “Loss of flexed or extension reflex” value [3, 12] was 6 of 6 and the “Loss of pain reaction” value [3, 12] was 6 of 6. The Respiratory irregularity [3, 12] was 6 of 6, the “Abdominal position/side lying position” value [3, 13] was 6 of 6 and the Biting behavior [3, 13] was “N”. For the same molecule, the Decreased muscle tone [3, 13] was 6 of 6, the Jumping [3, 13] was “N” and the “Loss of auricular reflex/righting reflex” value [3, 13] was 6 of 6. The “Loss of flexed or extension reflex” value [3, 13] was 6 of 6, the “Loss of pain reaction” value [3, 13] was 6 of 6 and the Respiratory irregularity [3, 13] was 6 of 6. The “Abdominal position/side lying position” value [3, 14] was 6 of 6, the Biting behavior [3, 14] was “N” and the Decreased muscle tone [3, 14] was 6 of 6. The Jumping [3, 14] was “N”, the “Loss of auricular reflex/righting reflex” value [3, 14] was 6 of 6 and the “Loss of flexed or extension reflex” value [3, 14] was 6 of 6. The “Loss of pain reaction” value [3, 14] was 6 of 6 and the Respiratory irregularity [3, 14] was 6 of 6.

With `O=C(O)c1nc2ccccc2n([C@H]2C[C@H]3CCC[C@@H](C2)N3C2CC3CCCC(C3)C2)c1=O` (stereo partly shown) [Compound (1D)] the “AUCinf Maximum” value ([4]; 3 mg single oral dose) was 176 ng·h/mL, the “AUCinf Minimum” value ([4]; 3 mg single oral dose) was 144 ng·h/mL and the “AUCt Maximum” value ([4]; 3 mg single oral dose) was 168 ng·h/mL. The “AUCt Minimum” value ([4]; 3 mg single oral dose) was 135 ng·h/mL, the “Cmax Maximum” value ([4]; 3 mg single oral dose) was 34 ng/mL and the “Cmax Minimum” value ([4]; 3 mg single oral dose) was 23 ng/mL. The “t1/2 Minimum” value ([4]; 3 mg single oral dose) was 2.1 h, the “tmax Maximum” value ([4]; 3 mg single oral dose) was 2.0 h and the “AUCinf Maximum” value ([4]; 10 mg single oral dose) was 557 ng·h/mL. The “AUCinf Minimum” value ([4]; 10 mg single oral dose) was 320 ng·h/mL, the “AUCt Maximum” value ([4]; 10 mg single oral dose) was 550 ng·h/mL and the “AUCt Minimum” value ([4]; 10 mg single oral dose) was 300 ng·h/mL. For the same molecule, the “Cmax Maximum” value ([4]; 10 mg single oral dose) was 98 ng/mL, the “Cmax Minimum” value ([4]; 10 mg single oral dose) was 56 ng/mL and the “t1/2 Maximum” value ([4]; 10 mg single oral dose) was 3.0 h. The “t1/2 Minimum” value ([4]; 10 mg single oral dose) was 2.4 h, the “tmax Maximum” value ([4]; 10 mg single oral dose) was 2.0 h and the “tmax Minimum” value ([4]; 10 mg single oral dose) was 1.0 h. The “AUCinf Maximum” value ([4]; 30 mg single oral dose) was 714 ng·h/mL, the “AUCinf Minimum” value ([4]; 30 mg single oral dose) was 398 ng·h/mL and the “AUCt Maximum” value ([4]; 30 mg single oral dose) was 708 ng·h/mL. The “AUCt Minimum” value ([4]; 30 mg single oral dose) was 388 ng·h/mL, the “Cmax Maximum” value ([4]; 30 mg single oral dose) was 106 ng/mL and the “Cmax Minimum” value ([4]; 30 mg single oral dose) was 69 ng/mL. The “t1/2 Maximum” value ([4]; 30 mg single oral dose) was 3.2 h, the “tmax Maximum” value ([4]; 30 mg single oral dose) was 3.0 h and the “tmax Minimum” value ([4]; 30 mg single oral dose) was 1.0 h. For the same molecule, the gastrointestinal absorption ([4]; across the three doses) was “rapid gastrointestinal absorption”, the half-life ([4]; 3 mg, 3 mg single oral dose, read-out: t1/2 Mean (converted)) was 2.3 h and the Tmax ([4]; 3 mg, 3 mg single oral dose, read-out: tmax Mean) was 1.6 h. The Tmax ([4]; 3 mg, 3 mg single oral dose, read-out: tmax Median) was 1.5 h, the half-life ([4]; 10 mg, 10 mg single oral dose, read-out: t1/2 Mean (converted)) was 2.6 h and the Tmax ([4]; 10 mg, 10 mg single oral dose, read-out: tmax Mean) was 1.5 h. The half-life ([4]; 30 mg, 30 mg single oral dose, read-out: t1/2 Mean (converted)) was 2.8 h, the Tmax ([4]; 30 mg, 30 mg single oral dose, read-out: tmax Mean) was 1.8 h and the Tmax ([4]; 30 mg, 30 mg single oral dose, read-out: tmax Median) was 1.5 h. The half-life ([4]; 30 mg, 3, 10 and 30 mg single oral doses, read-out: t1/2, minimum to maximum across the three doses) was 2.1 to 3.2 h, the Tmax ([4]; 30 mg, 3, 10 and 30 mg single oral doses, read-out: tmax, minimum to maximum across the three doses) was 1 to 3 h and the AUC(0-t) ([4]; 3 mg single oral dose) was 154 ng·h/mL. For the same molecule, the Cmax ([4]; 3 mg single oral dose) was 30 ng/mL, the AUC(0-inf) ([4]; 3 mg single oral dose) was 161 ng·h/mL and the AUC(0-t) ([4]; 10 mg single oral dose) was 438 ng·h/mL. It also gave a Cmax ([4]; 10 mg single oral dose) of 77 ng/mL, an AUC(0-inf) ([4]; 10 mg single oral dose) of 447 ng·h/mL and an AUC(0-t) ([4]; 30 mg single oral dose) of 505 ng·h/mL. The Cmax ([4]; 30 mg single oral dose) was 83 ng/mL and the AUC(0-inf) ([4]; 30 mg single oral dose) was 512 ng·h/mL.
